Experimental data taken from PMC7060258 (Scientific Reports, 2020).
No end group written: not given here.

Experiments:
[1] = tested on: trypsin; assay: Thermodynamic parameters of complexes with trypsin; type: binding; details: complex with trypsin, SPR
Method: The magnitudes of free energy change (∆G) of the complexes differed slightly from the same complexes of HCRG1 and HCRG2 and were lower than for the InhVJ ones.
The study of the interaction of serine proteinases with rHCIQ2c1 and rHCIQ4c7 was performed on SPR biosensor Biacore 3000 (GE Healthcare, USA) running under the program “Biacore 3000 Control Software v.1.0”. The evaluation of data was carried out using “Biacore Evaluation v.4.1”. Peptides were covalent immobilized on carboxymethylated surface of the Biacore CM4 sensor chip (GE Healthcare, USA) activated by EDC/NHS (N-hydroxysuccinimide/1-ethyl-3-(3-dimethylaminopropyl)carbodiimide hydrochloride) mixture by the injection of peptide solution (100 µg/ml) in 10 mM sodium acetate (pH 5.5) during 10 min with flow rate 5 µl/min. Quantities of immobilized peptides were 970 RU (resonance units, 1 RU corresponds 1 pg peptide) for rHCIQ2c1 and 460 RU for rHCIQ4c7. In all of the experiments, the flow cell 1 (Fc1) without the immobilized polypeptides was considered as the reference cell for the correction of the signal responses. […] Further complex breakdown was recorded during at most 10 min. […] Changes in enthalpy (ΔH) and entropic term (−TΔS) were calculated from the linear equation:2 ΔG=ΔH−TΔS, using the liner approximation of temperature dependence of ΔG (Van’t Hoff diagram).

[2] = tested on: murine neuroblastoma Neuro2a cells; assay: Intracellular ROS formation level (H2DCF-DA); type: cell-based
Method: We estimated whether rHCIQ2c1 is able to inhibit reactive oxygen species (ROS) production. After incubation of Neuro2a cells with rHCIQ2c1 (up to 10 µM) and 6-OHDA (25 µM), ROS content was evaluated by measurement of dichlorofluorescin intensity.
The intracellular ROS level was detected using 2,7-dichlordihydrofluorescein diacetate (H2DCF-DA) solution (Molecular Probes, final concentration 10 µM). In this study, mouse neuroblastoma Neuro2a cells seeded on 96-well plates were washed twice with serum-free DMEM and thereafter incubated for 1 h in serum-free MEM medium in the presence of compounds in concentrations from 10 pM to 10 µM. Cell were treated with 6-OHDA (25 μM) for 30 min at 37 °C with 5% CO2. Followed by treatment with 6-OHDA, the cells were washed once with PBS. After washing with serum-free DMEM medium, the cells were loaded with H2DCF-DA for 30 min. The intensity of dichlorofluorescin fluorescence was measured with plate reader PHERAstar FS (BMG Labtech, Germany) at λex = 485 nm and λem = 518 nm. The cytoprotective effect of peptides and the increase in cell viability under their action was calculated as a percentage, taking the cell viability treated with 6-OHDA as 100%.

[3] = target: trypsin; assay: Trypsin inhibitory activity (BAPNA, Dixon); type: biochemical; details: BAPNA 0.6 and 1.2 mM, Dixon method; trypsin 208 nM; peptide 0–26.6 µM (rHCIQ2c1), 0–24 µM (rHCIQ4c7); three parallel experiments; error limits 0.1–0.5%
Method: The trypsin inhibitory activity of HCIQ peptides was estimated according to the standard procedure using N-α-benzoyl-D,L-arginine p-nitroanilide (BAPNA) as a substrate. The trypsin inhibition constants of rHCIQ2c1 and rHCIQ4c7 were determined by the method of Dixon[74] using substrate (BAPNA) concentrations of 0.6 and 1.2 mM. The trypsin concentration in the reaction mixture was 208 nM. The range of peptide concentrations was 0–26.6 µM for rHCIQ2c1 and 0–24 µM for rHCIQ4c7. The constants (Ki) were calculated based on the results of three parallel experiments. Computational error limits were in the range of 0.1–0.5%.

## rHCIQ2c1: recombinant Kunitz-peptide of Heteractis crispa, most prevalent isoform, mature peptide 58 aa, expressed in E. coli (IQGNICSEPKKVGRCRGSFPRFYFDSETGKCTPFIYGGCGGNGNNFETLHACRAICRA; ends and bridges not checked; cysteine pairing not given here)
[1]; 10–40 °С, Van't Hoff diagram
  ∆H, enthalpy change: 72.30 kJ/mol
[1]; 25 °C, ΔG=RTlnKD
  ∆G, Gibbs energy change: –54.70 kJ/mol
[2]; 0.001–0.01 µM peptide, pretreatment 1 h, 6-OHDA 25 µM 30 min, dichlorofluorescin fluorescence
  Reduction of ROS production: 34%
[2]; up to 10 µM peptide, 6-OHDA 25 µM
  Concentration dependence of ROS level: An increase in ROS formation when the concentration of rHCIQ2c1 increases from 0.01 to 1 µM, and its decrease again at 10 µM

## rHCIQ4c7: recombinant Kunitz-peptide of Heteractis crispa, isoform with the rare substitution Gly17Glu
[3]
  Ki: 190 nM
